Columns and labels:
B2(h) = target: T1, B2(h) (Homo sapiens, UniProt P30411); assay: B2(h) binding assay; details: 1.0E−05 M; read-out: % Inhibition of Control Specific Binding
T1 construct: expressed in transfected cells; host or cells: CHO cells

CB2(h) = target: T2, CB2(h) (Homo sapiens, UniProt P34972); assay: CB2(h) binding assay; details: 1.0E−05 M; read-out: % Inhibition of Control Specific Binding
T2 construct: expressed in transfected cells; host or cells: HEK-293 cells

NMDA = NMDA binding assay; design: species or system rat; details: 1.0E−05 M
H1(h) = target: T3, H1(h) (Homo sapiens, UniProt P35367); assay: biochemical; details: 1.0E−05 M; read-out: % Inhibition of Control Specific Binding
T3 construct: expressed in transfected cells; host or cells: HEK-293 cells
T3 sequence (P35367 whole entry): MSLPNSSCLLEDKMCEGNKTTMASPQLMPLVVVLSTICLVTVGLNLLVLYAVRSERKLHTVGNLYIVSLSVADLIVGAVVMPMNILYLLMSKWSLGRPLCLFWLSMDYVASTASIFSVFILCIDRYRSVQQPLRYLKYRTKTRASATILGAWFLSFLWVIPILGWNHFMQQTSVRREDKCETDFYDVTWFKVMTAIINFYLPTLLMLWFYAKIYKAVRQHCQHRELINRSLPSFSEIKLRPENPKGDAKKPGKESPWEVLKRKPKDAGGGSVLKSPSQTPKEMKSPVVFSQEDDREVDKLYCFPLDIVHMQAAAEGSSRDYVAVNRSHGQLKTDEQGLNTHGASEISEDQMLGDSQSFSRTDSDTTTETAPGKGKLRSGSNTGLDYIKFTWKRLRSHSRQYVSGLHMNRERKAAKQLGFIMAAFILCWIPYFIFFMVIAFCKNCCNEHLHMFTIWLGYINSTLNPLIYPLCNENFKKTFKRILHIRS

H3 = H3 binding assay; design: species or system rat; details: 1.0E−05 M
I1 (peripheral) = I1 (peripheral) binding assay; design: species or system bovine; details: 1.0E−05 M
Y (non-selective) = Y (non-selective) binding assay; design: species or system rat; details: 1.0E−05 M
[1] = target: N (neuronal) (α-BGTX-insensitive) (Rattus norvegicus, UniProt P09483+P12390); assay: N (neuronal) (α-BGTX-insensitive) binding assay; details: 1.0E−05 M; read-out: % Inhibition of Control Specific Binding
Androgen(h) (AR) = target: T4, Androgen(h) (AR) (Homo sapiens, UniProt P10275, T878A); assay: Androgen(h) (AR) binding assay; details: 1.0E−05 M; read-out: % Inhibition of Control Specific Binding
T4 construct: LNCaP cells; endogenous in cells; host or cells: LNCaP cells (cytosol)
T4 sequence (P10275 whole entry T878A): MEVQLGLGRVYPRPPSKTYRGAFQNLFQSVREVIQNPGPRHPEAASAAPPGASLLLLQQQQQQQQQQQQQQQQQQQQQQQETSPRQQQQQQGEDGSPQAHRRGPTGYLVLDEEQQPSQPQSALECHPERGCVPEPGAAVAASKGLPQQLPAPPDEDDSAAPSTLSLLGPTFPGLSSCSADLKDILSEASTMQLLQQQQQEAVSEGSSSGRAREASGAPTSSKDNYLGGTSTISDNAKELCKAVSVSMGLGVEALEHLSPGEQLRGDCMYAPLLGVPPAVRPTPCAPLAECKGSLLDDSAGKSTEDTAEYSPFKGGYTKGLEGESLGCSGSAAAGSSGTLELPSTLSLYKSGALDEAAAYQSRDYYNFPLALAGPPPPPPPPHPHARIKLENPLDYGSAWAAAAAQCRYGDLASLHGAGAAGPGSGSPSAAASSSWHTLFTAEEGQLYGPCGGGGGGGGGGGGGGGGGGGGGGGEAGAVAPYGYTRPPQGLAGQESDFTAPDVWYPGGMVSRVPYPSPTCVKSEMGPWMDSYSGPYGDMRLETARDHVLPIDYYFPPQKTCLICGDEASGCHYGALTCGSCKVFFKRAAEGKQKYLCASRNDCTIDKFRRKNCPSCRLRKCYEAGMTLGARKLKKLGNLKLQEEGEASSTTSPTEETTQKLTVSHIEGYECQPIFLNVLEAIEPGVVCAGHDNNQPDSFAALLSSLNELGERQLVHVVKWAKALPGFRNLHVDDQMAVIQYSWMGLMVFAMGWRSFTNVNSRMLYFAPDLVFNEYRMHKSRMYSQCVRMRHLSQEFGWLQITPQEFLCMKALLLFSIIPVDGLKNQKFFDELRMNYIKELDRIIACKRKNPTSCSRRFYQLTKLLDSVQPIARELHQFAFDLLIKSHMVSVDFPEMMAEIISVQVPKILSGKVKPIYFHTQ

NE transporter(h) = target: T5, NE transporter(h) (Homo sapiens, UniProt P23975); assay: NE transporter(h) binding assay; details: read-out: % Inhibition of Control Specific Binding
T5 construct: expressed in transfected cells; host or cells: MDCK cells
T5 sequence (P23975 whole entry): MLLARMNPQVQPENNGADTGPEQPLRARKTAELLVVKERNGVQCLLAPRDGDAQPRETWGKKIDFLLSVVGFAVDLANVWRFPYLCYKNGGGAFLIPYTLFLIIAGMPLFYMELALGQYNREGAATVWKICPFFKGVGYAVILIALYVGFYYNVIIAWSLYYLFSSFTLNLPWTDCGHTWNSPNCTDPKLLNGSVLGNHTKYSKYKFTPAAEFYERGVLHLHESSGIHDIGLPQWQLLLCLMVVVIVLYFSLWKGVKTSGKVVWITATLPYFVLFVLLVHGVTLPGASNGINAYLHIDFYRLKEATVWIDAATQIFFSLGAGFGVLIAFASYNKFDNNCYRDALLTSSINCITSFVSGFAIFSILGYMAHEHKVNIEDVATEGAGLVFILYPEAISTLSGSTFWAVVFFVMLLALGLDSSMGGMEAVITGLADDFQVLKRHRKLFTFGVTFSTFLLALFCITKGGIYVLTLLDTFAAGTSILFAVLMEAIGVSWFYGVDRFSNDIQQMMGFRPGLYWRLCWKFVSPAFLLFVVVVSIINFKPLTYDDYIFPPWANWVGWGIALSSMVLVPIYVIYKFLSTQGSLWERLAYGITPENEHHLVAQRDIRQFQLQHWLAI

DA transporter(h) = target: T6, DA transporter(h) (Homo sapiens, UniProt Q01959); assay: DA transporter(h) binding assay; details: 1.0E−05 M; read-out: % Inhibition of Control Specific Binding
T6 construct: expressed in transfected cells; host or cells: CHO cells
T6 sequence (Q01959 whole entry): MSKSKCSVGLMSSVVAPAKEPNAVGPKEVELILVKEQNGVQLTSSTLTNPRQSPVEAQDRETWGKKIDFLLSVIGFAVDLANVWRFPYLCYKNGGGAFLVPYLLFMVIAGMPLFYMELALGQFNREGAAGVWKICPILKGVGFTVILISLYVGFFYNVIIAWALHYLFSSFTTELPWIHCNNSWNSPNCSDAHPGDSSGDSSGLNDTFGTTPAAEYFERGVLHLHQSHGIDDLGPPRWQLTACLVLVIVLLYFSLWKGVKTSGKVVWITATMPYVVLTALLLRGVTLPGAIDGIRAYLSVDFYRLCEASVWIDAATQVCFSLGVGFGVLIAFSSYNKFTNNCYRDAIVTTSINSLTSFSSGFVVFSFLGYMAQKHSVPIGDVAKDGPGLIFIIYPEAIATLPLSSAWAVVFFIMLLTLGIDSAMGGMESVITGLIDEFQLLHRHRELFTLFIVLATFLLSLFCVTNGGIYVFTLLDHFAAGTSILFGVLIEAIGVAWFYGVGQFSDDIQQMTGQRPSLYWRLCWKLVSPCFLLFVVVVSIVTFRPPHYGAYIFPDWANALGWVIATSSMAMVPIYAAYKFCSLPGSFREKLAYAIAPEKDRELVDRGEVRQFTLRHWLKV

Phosphodiesterase 4(h) = Phosphodiesterase 4(h) enzyme assay; type: biochemical, human; details: 1.0E−05 M
Phosphodiesterase 5(h) = target: T7, Phosphodiesterase 5(h) (Homo sapiens, UniProt O76074); assay: Phosphodiesterase 5(h) enzyme assay; type: biochemical; details: 1.0E−05 M
T7 construct: human platelets; from tissue; host or cells: human platelets

Acetylcholinesterase(h) = target: T8, Acetylcholinesterase(h) (Homo sapiens, UniProt P22303); assay: Acetylcholinesterase(h) enzyme assay; type: biochemical; details: 1.0E−05 M
T8 construct: host or cells: HEK-293 cells
T8 sequence (P22303 32-614): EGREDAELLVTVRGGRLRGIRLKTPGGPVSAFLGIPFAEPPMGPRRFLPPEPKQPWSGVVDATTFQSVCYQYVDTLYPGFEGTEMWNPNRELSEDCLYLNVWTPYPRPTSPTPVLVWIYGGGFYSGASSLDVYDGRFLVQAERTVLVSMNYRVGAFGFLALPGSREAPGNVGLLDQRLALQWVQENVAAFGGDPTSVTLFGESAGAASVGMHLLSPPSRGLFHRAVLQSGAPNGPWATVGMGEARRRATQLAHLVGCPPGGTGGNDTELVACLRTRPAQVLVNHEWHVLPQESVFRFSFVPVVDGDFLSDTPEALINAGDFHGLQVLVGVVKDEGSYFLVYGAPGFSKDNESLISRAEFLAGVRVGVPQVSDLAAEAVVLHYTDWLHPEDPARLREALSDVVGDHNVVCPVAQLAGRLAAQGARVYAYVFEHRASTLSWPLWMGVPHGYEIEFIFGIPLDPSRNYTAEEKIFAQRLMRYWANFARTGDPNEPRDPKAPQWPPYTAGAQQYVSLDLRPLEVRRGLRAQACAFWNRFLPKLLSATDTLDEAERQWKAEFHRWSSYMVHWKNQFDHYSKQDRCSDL

MAO-A(h) = target: T9, MAO-A(h) (Homo sapiens, UniProt P21397); assay: MAO-A(h) enzyme assay; type: biochemical; details: 1.0E−05 M
T9 construct: human placenta; from tissue; host or cells: human placenta
T9 sequence (P21397 whole entry): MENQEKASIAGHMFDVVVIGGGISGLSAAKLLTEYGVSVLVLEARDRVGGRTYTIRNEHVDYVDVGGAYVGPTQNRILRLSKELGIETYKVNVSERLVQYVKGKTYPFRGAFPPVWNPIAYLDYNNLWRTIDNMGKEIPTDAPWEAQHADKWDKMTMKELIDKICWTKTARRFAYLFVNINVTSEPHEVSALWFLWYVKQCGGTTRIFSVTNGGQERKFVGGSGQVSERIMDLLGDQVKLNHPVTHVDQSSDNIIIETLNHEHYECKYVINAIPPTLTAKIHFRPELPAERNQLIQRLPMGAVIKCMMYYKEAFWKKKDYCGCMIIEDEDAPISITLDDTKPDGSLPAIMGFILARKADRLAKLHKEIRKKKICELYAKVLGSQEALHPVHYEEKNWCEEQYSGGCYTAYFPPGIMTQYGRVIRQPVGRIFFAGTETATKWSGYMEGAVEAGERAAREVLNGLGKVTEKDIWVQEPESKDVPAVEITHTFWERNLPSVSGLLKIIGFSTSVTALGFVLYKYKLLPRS

Tyrosine hydroxylase = target: T10, Tyrosine hydroxylase (Rattus norvegicus, UniProt P04177); assay: Tyrosine hydroxylase enzyme assay; type: biochemical; details: 1.0E−05 M
T10 construct: rat striatum; from tissue; host or cells: rat striatum
T10 sequence (P04177 whole entry): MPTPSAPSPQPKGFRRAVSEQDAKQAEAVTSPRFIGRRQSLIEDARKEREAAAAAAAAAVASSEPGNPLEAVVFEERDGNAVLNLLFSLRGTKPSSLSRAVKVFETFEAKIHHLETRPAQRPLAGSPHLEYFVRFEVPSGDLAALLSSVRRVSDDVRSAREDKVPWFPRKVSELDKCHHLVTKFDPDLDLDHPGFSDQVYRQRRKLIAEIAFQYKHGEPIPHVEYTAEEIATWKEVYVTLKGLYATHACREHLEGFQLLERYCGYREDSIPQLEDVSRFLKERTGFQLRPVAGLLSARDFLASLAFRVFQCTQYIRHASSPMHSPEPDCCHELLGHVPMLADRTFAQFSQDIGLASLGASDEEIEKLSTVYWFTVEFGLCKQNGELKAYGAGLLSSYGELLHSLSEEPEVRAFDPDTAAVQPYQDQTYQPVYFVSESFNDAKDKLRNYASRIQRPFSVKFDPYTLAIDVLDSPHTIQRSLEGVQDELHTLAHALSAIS

[2] = test system: colitis provoked by trinitrobenzene sulphonic acid (TNBS); assay: Rat model of colitis provoked by TNBS, 3 days, treatment from Day −1 (CCI-7155, CCI-7156); type: in vivo; details: vs CMC group
Experimental: The effects of CCI-7155 and CCI-7156, were evaluated in the TNBS model at one and two oral dose levels, administered twice a day by gavage, treatment commencing 1 day prior to challenge. A low intracolonic concentration of TNBS (10 mg) was used, known to produce reproducible yet not unduly severe mucosal injury in the colon, determined 3 days after instillation. Colonic macroscopic injury has been assessed, as has colonic weight as a reflection of colonic oedema and wet/dry weight to determine colonic water content, along with determination of myeloperoxidase (MPO) activity (Bradley et al, 1982) as an index of white cell infiltration for the evaluation of tissue injury. In addition to the test compounds [CCI-7155 and CCI-7156], the actions of sulfasalazine, a well-established and currently used treatment has also been evaluated in this model.
TNBS Challenge—Male Wistar rats (230-280 g) were randomised into groups of 8-10 before commencement of the study. Food was withdrawn 18 h (overnight) before TNBS administration, but the rats were allowed free access to drinking water. On the morning of the day of challenge, Day 0, the rats were transiently anaesthetised with ether and TNBS (10 mg in 0.25 ml of 50% ethanol) was instilled approximately 6-8 cm into the colon using a soft plastic catheter inserted in the rat rectum. The rats were allowed to recover with free access to food and drinking water. At the end of the experiment, 72 h after TNBS administration (i.e. on the morning of Day 3, between 9.00 and 11.00), the distal colon was dissected, and the distal 8 cm photographed and stored appropriately for subsequent analyses.
The following primary parameters were measured in the main study: (a) macroscopic scoring of distal 8 cm of colon; (b) myeloperoxidase levels in segments of distal 8 cm of colon. In addition, the weight of the colonic segment was assessed as an indirect and non-specific marker of oedema, and this was supported by measurement of the wet/dry ratio as an index of water content. The body weight of the animals was also determined and expressed as % change from the day of challenge.
Treatments. All challenged groups were dosed orally twice daily from Day −1. The groups for study were:
The compounds were thus administered orally, twice daily and given on Day −b 1 before TNBS administration, on Day 0, the day of TNBS administration and on Day 1 and 2. Tissues were removed 72 h after TNBS administration (on Day3). Dosing was performed once in the morning (Between 9:00 and 11:00) and once in the late afternoon (between 18:00 and 20:00).
Preparation of Compound. CCI-7155 and CCI-7156 were suspended in 0.5% w/v carboxy methyl cellulose in sterile water, to produce a smooth suspension as instructed, and administered in a volume of 2 ml/kg (˜0.5 ml per rat per dose).
Preparation of Sulfasalazine. the Doses of Sulfasalazine Used in the Present study were derived from previously published work with this agent in the TNBS model (Boughton-Smith et al, 1988; Sykes et al, 1999; Galvez et al, 2000; Bobin-Dubigeon et al, 2001). Sulfasalazine was suspended in carboxy methyl cellulose (0.5% w/v in sterile water; Sigma Chemical Co, compound reference M-0262) and administered p.o. in a volume of 0.5 ml. In previous studies in these laboratories, this concentration of carboxy methyl cellulose (CMC) had no significant effect on the extent of colitis as determined by macroscopic injury and changes in inflammatory markers following TNBS challenge.
Macrocopic Injury. The distal 8 cm portion of the colon (measured from the rectum) was removed, opened longitudinally and gently rinsed with ice-cold phosphate buffer (PBS; pH 7.4), blotted, weighed (Scaltec, Germany) and photographed (Samsung, Digimax 340, digital camera). The tissue was then cut into longitudinal strips, each strip being thus 8 cm long and included the whole of the zone of injury. […]

[3] = 50 mg/kg/day p.o. in divided doses, 72 h after TNBS

T2 sequence (P34972 whole entry): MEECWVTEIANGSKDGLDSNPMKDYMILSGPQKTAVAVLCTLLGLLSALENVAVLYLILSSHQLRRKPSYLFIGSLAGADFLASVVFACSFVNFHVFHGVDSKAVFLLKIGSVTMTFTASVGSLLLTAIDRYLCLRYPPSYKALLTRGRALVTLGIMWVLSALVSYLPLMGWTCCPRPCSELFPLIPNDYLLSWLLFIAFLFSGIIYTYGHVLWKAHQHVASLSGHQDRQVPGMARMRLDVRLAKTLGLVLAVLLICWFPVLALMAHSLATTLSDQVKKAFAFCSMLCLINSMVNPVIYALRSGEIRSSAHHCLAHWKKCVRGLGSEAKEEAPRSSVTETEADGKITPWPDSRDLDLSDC
T1 sequence (P30411 whole entry): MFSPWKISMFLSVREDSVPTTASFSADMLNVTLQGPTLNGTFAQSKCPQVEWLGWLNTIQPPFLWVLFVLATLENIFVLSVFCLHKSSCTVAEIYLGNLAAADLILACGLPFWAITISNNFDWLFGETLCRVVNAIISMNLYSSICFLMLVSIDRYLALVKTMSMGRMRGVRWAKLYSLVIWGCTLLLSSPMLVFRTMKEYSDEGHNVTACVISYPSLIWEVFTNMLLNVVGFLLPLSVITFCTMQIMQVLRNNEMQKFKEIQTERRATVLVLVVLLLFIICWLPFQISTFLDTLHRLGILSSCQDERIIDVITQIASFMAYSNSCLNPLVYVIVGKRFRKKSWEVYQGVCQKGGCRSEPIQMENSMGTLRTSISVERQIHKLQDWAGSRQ

## N#Cc1ccc2c(ccn2CCCCCB(O)O)c1 [Example 20, 5-(5-cyano-1H-indol-1-yl)pentylboronic acid]
B2(h)
  inhibition at 10 µM: 18%
CB2(h)
  inhibition at 10 µM: -12%
NMDA
  % Inhibition of Control Specific Binding: 19%
H1(h)
  inhibition at 10 µM: 6%
H3
  % Inhibition of Control Specific Binding: 0%
I1 (peripheral)
  % Inhibition of Control Specific Binding: −6%
Y (non-selective)
  % Inhibition of Control Specific Binding: 14%
[1]
  inhibition at 10 µM: 12%
Androgen(h) (AR)
  inhibition at 10 µM: 40%
NE transporter(h)
  inhibition at 10 µM: 15%
DA transporter(h)
  inhibition at 10 µM: 47%
Phosphodiesterase 4(h)
  % Inhibition of Control Values: 91%
Phosphodiesterase 5(h)
  % Inhibition of Control Values: 94%
Acetylcholinesterase(h)
  % Inhibition of Control Values: 11%
MAO-A(h)
  % Inhibition of Control Values: 6%
Tyrosine hydroxylase
  % Inhibition of Control Values: 4%

## O=C(O)c1cc(/N=N/c2ccc(S(=O)(=O)Nc3ccccn3)cc2)ccc1O [sulfasalazine, reference compound]
[2]; 50 mg/kg/day p.o. in divided doses b.i.d.
  attenuation of TNBS-induced fall in body weight (% change in body weight at Day 0): did not reach statistical significance
[2]; [3]
  reduction in area of macroscopic colonic injury: significantly (P<0.001) reduced the extent of macroscopic injury
  reduction in colon weight: significant reduction in colon weight was also not observed
  reduction in colonic MPO levels: significantly reduced the elevated colonic levels of MPO
  reduction in colonic water content (wet/dry weight): significant reduction in colon weight was also not observed
